Measured values from PubChem BioAssay (NCI).
Where “and” joins values, the source holds several entries; their conditions need not be identical. Equal values may be shown once.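 Briefly, cells in 96-well plates were exposed to five compound concentrations for 48 h, and endpoints were estimated by linear interpolation. GI50 marks 50% less growth. The concentration for full growth arrest is given as TGI.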

Assays:
Test in all cases: inhibition of tumour cell growth, NCI panel, 48 h
[1] = test system: SNB-78 CNS
[2] = test system: RXF-631 renal
[3] = test system: CAKI-1 renal
[4] = test system: OVCAR-4 ovarian
[5] = test system: DLD-1 colon
[6] = test system: K-562 leukemia
[7] = test system: M14 melanoma
[8] = test system: ACHN renal
[9] = test system: UACC-62 melanoma
[10] = test system: SN12C renal
[11] = test system: TK-10 renal
[12] = test system: KM12 colon
[13] = test system: COLO 205 colon
[14] = test system: HCT-15 colon
[15] = test system: IGROV1 ovarian
[16] = test system: HL-60(TB) leukemia
[17] = test system: A549 NSCLC
[18] = test system: NCI-H23 lung
[19] = test system: RPMI-8226 leukemia
[20] = test system: M19-MEL melanoma
[21] = test system: SK-MEL-5 melanoma
[22] = test system: U251 CNS
[23] = test system: KM20L2 colon
[24] = test system: MOLT-4 leukemia
[25] = test system: CCRF-CEM leukemia
[26] = test system: HCT-116 colon
[27] = test system: NCI-H226 lung
[28] = test system: 786-0 renal
[29] = test system: UACC-257 melanoma
[30] = test system: SF-539 CNS
[31] = test system: EKVX NSCLC
[32] = test system: LOX IMVI melanoma
[33] = test system: SNB-75 CNS
[34] = test system: A498 renal
[35] = test system: SK-MEL-28 melanoma
[36] = test system: XF 498 CNS
[37] = test system: SF-295 CNS
[38] = test system: SW-620 colon
[39] = test system: HOP-18 NSCLC
[40] = test system: HOP-92 NSCLC
[41] = test system: SF-268 CNS
[42] = test system: RXF 393 renal
[43] = test system: OVCAR-5 ovarian
[44] = test system: UO-31 renal
[45] = test system: SNB-19 CNS
[46] = test system: SK-MEL-2 melanoma
[47] = test system: HT29 colon
[48] = test system: OVCAR-8 ovarian
[49] = test system: LXFL 529 NSCLC
[50] = test system: NCI-H460 lung
[51] = test system: DMS 114 small cell lung
[52] = test system: SK-OV-3 ovarian
[53] = test system: DMS 273 small cell lung
[54] = test system: HCC-2998 colon
[55] = test system: OVCAR-3 ovarian
[56] = test system: MALME-3M melanoma
[57] = test system: NCI-H522 lung
[58] = test system: HOP-62 NSCLC

## CCOc1ccc(/C=C\c2cc(OC)c(OC)c(OC)c2)cc1
[1]
  TGI: > 100 µM
[2]
  TGI: > 100 µM
[3]
  TGI: 18.6 µM
[4]
  GI50: 403 nM
  TGI: > 100 µM
[5]
  GI50: 29.2 nM
  TGI: > 100 µM
[6]
  TGI: > 100 µM
[7]
  TGI: > 100 µM
[8]
  TGI: > 100 µM
[9]
  TGI: > 100 µM
[10]
  TGI: 60.5 µM
[11]
  TGI: > 100 µM
[12]
  GI50: 17.2 nM
  TGI: 0.185 µM
[13]
  TGI: 0.399 µM
[14]
  GI50: 32.2 nM
  TGI: 0.286 µM
[15]
  GI50: 31.7 nM
  TGI: > 100 µM
[16]
  TGI: 3.54 nM and 15.5 nM
[17]
  TGI: > 100 µM
[18]
  TGI: 0.111 µM
[19]
  TGI: 5.03 µM
[20]
  TGI: > 100 µM
[21]
  TGI: 0.117 µM
[22]
  TGI: 13.2 nM and 34.1 nM
[23]
  TGI: 0.00113 µM
[24]
  TGI: 17.8 µM
[25]
  TGI: 91.3 µM
[26]
  TGI: 0.152 µM
[27]
  TGI: 22.3 nM and 24 nM
[28]
  TGI: > 100 µM
[29]
  TGI: 98.6 µM
[30]
  TGI: 0.000685 µM
[31]
  TGI: > 100 µM
[32]
  TGI: > 100 µM
[33]
  TGI: 0.000226 µM
[34]
  TGI: 0.0248 µM
[35]
  TGI: > 100 µM
[36]
  TGI: 0.0917 µM
[37]
  TGI: 0.000209 µM
[38]
  TGI: > 100 µM
[39]
  GI50: > 100 µM
  TGI: > 100 µM
[40]
  TGI: 0.0512 µM
[41]
  TGI: > 100 µM
[42]
  TGI: 0.000904 µM
[43]
  TGI: 61.7 µM

## c1ccc(CNc2ccc3[nH]c4cnccc4c3c2)cc1
[1]
  TGI: 38.5 µM
[2]
  TGI: 49.2 µM
[44]
  TGI: 29.4 µM
[45]
  TGI: 29.6 µM
[3]
  TGI: 30.4 µM
[4]
  TGI: 29.1 µM
[5]
  TGI: 31.9 µM
[6]
  TGI: 36.5 µM
[46]
  TGI: 33.1 µM
[47]
  TGI: 31.7 µM
[48]
  TGI: 36.5 µM
[7]
  TGI: 32.9 µM
[8]
  TGI: 29 µM
[9]
  TGI: 34 µM
[10]
  TGI: 33.3 µM
[11]
  TGI: 36.2 µM
[12]
  TGI: 31.1 µM
[49]
  TGI: 30.5 µM
[13]
  TGI: 31 µM
[14]
  TGI: 39.1 µM
[50]
  TGI: 34.1 µM
[15]
  TGI: 34.4 µM
[16]
  TGI: 27400 nM
[17]
  TGI: 34.7 µM
[18]
  TGI: 32.3 µM
[51]
  TGI: 32.1 µM
[19]
  TGI: 54.7 µM
[20]
  TGI: 36.3 µM
[21]
  TGI: 30.2 µM
[22]
  TGI: 32000 nM
[52]
  TGI: 41.5 µM
[23]
  TGI: 30.9 µM
[53]
  TGI: 37.4 µM
[24]
  TGI: 36.9 µM
[54]
  TGI: 33.2 µM
[25]
  TGI: 42.5 µM
[26]
  TGI: 33.2 µM
[27]
  TGI: 38400 nM
[55]
  TGI: 27 µM
[28]
  TGI: 29.3 µM
[29]
  TGI: 31.4 µM
[56]
  TGI: 35.8 µM
[30]
  TGI: 33.3 µM
[31]
  TGI: 43.4 µM
[32]
  TGI: 33.5 µM
[33]
  TGI: 19.8 µM
[34]
  TGI: 28.6 µM
[35]
  TGI: 27.1 µM
[36]
  TGI: 35.8 µM
[57]
  TGI: 29.1 µM
[37]
  TGI: 32.6 µM
[38]
  TGI: 42.2 µM
[40]
  TGI: 30.8 µM
[41]
  TGI: 35 µM
[42]
  TGI: 26.8 µM
[43]
  TGI: 30.9 µM
[58]
  TGI: 31.7 µM
